Test results as given in patent US9291629B2, “Adiponectin receptor C-terminal fragments (CTF)-immunoglobulin” (Siemens Healthcare Diagnostics Inc., priority 2011, dated 2016).

How the values were obtained:
[1] = tested on: green monkey epithelial cell (VERO); experiment: Western blot of CTF immunoglobulin in induced green monkey epithelial cells (VERO); type: cell-based; details: for Increase of CTF immunoglobulin on treatment of cell cultures: epithelial cell culture; for Primarily observed immunoglobulin chains with CTF: treated epithelial cells, denatured western blot of lysates
Experimental: (§1) Samples and homogenates with protein concentration of about 20 ug/ml were boiled in water for 5 minutes in buffer with SDS and chilled on ice to denature the protein. The sample was then centrifuged to remove precipitate and was boiled sample 1:1 with BioRad Laemmli buffer with 5% beta-mercaptoethanol to break the disulfide bonds. The treated samples were loaded onto the 12% or 10% Ready Gel (Biorad) and SDS-PAGE gel was run in Tris, glycine, SDS buffer (BioRad) at 110V (BioRad PROTEAN® Tetra Cel) for 1-1.5 hours until the bromophenol blue reached the bottom of the gel. Gel plates were disassembled, soaked in transfer buffer and the gels were transferred to 0.2 um nitrocellulose paper at 30V in a 4° C. chamber overnight.
(§2) After the protein transfer, the nitrocellulose was rinsed and washed with TTBS buffer (20 mM Tris, 500 mM NaCl, pH 7.4, 0.1% Tween®-20). The membrane was then blocked with 5% BSA in TTBS at room temperature with gentle agitation. The blocking buffer was then removed and the membrane was incubated with antibodies conjugated to alkaline phosphatase or horse radish peroxidase. For AdipoR1 CTF, the mAb 444-1D12 conjugated to alkaline phosphatase was used (2.5 mg/ml diluted 1:1000 Siemens Healthcare Diagnostics). The membrane with antibody conjugate was incubated at room temperature for 3 hours or at 4° C. overnight with gentle agitation. The antibody was then discarded and the gel was washed three times with TTBS for 5 minutes each. The membrane was incubated with the alkaline phosphate or horse radish peroxidase substrate and the color developed and recorded. In some cases the membrane was imaged by exposure to X-ray film (Fisher) at a desired time (3 seconds to 10 minutes) and then developed using Kodak® GBX developer/fixer.
(§3) Cell culture mouse myocytes (C2C12) and green monkey epithelial cell (VERO) (American Type Cell Culture, ATCC, Manassa Va.) were maintained in culture using RPMI-1640 media, while normal cells were maintained with modified Eagle's medium (MEM). Both media contained 2 mM glutamine, penicillin (50 units/ml), streptomycin (50 μg/ml), and 10% fetal bovine serum. The media was cytokine free. Cells were grown at 37° C. in an atmosphere of 95% air and 5% CO2 and propagated by splitting with 1 to 4 dilutions using PBS/EDTA at cell growth confluence. Cell lines were synchronized and induced with R1 CTF25 SEQ ID NO:11 or globular adiponectin.
(§4) Both cell lines expressed Adiponectin receptor 1 and lysates from both cell lines contained CTF immunoglobulin, comprising the heavy chain and full IgG but without the light chain form on denatured Western blots. As these are cell cultures grown in fetal bovine serum containing bovine IgG, the cells attach CTF to IgG. […]

mouse myocytes (C2C12) = experiment: Western blot of CTF immunoglobulin in induced mouse myocytes (C2C12); type: cell-based; details: for Increase of CTF immunoglobulin on treatment of cell cultures: myocyte cell culture; for Primarily observed immunoglobulin chains with CTF: treated myocyte, denatured western blot of lysates
Experimental: as §1, §2, §3, §4

CTF immunoglobulin = experiment: Western blot of CTF immunoglobulin in tissues of diabetic rats treated with AdipoR1 CTF25; type: in vivo; details: for Primarily observed immunoglobulin chains with CTF: treated diabetic rats
Experimental: Western blot analyses were run on human plasma, pancreas, adipose, liver and muscles tissue, as well as myocytes and epithelial cell culture homogenates according to the following methods and variations thereof.
as §1, §2
The results of the western blots obtained on liver, pancreas, muscle and mesenteric tissues of normal rats, diabetic rats and diabetic rats treated with AdipoR1 CTF25 (SEQ ID NO: 11) are shown in Table 3. Results are typical for all monoclonal antibodies to CTF AdipoR1 and AdipoR2 and treatments tested. All of the tissues show the presence of CTF immunoglobulins. […] Differences in the amount of immunoglobulin chains with CTF were observed between individual rat and between normal and diabetic rats. All tissues contained IDE and TACE.

Substance: adiponectin [reference compound]
- Increase of CTF immunoglobulin on treatment of cell cultures [1]: did not increase CTF immunoglobulin bands
- Primarily observed immunoglobulin chains with CTF [1]: Heavy chains & full
- Increase of CTF immunoglobulin on treatment of cell cultures (mouse myocytes (C2C12)): did not increase CTF immunoglobulin bands
- Primarily observed immunoglobulin chains with CTF (mouse myocytes (C2C12)): Heavy chains & full

Substance: HFYGVSNLQEFRYGLEGGCTDDTLL [AdipoR1 CTF25]
- Increase of CTF immunoglobulin on treatment of cell cultures [1]: did not increase CTF immunoglobulin
- Primarily observed immunoglobulin chains with CTF [1]: Heavy chains &
- Increase of CTF immunoglobulin bands on treatment (CTF immunoglobulin; rat tissues): did not increase bands
- Primarily observed immunoglobulin chains with CTF (CTF immunoglobulin; liver): Light chains
- Primarily observed immunoglobulin chains with CTF (CTF immunoglobulin; mesenteric tissues): Heavy & light
- Primarily observed immunoglobulin chains with CTF (CTF immunoglobulin; muscle): Heavy & light
- Primarily observed immunoglobulin chains with CTF (CTF immunoglobulin; pancreas): Heavy chain
- Increase of CTF immunoglobulin on treatment of cell cultures (mouse myocytes (C2C12)): did not increase CTF immunoglobulin
- Primarily observed immunoglobulin chains with CTF (mouse myocytes (C2C12)): Heavy chains &
